Data as given in ChEMBL document CHEMBL1133288, “Synthesis and antiviral evaluation of nucleic acid-based (NAB) libraries” (Bioorg Med Chem Lett, 2000).

Tested on: Vero
Assay: Compound was evaluated for inhibition of HSV-1 induced plaques in vero cells (African green monkey kidney cells)
Type: functional, cell-based
Conditions: Chlorocebus sabaeus

Nc1nc2c(ncn2COCCO)c(=O)[nH]1 [ACYCLOVIR]
EC50: 6 µM
